The record followed here is US6653081B2, “Methods for monitoring antiretroviral therapy and guiding therapeutic decision in the treatment of HIV/AIDS” (ViroLogic, Inc., priority 2000, dated 2003).

SMILES strings stand for the structures. “And” between values parts separate entries of the source, which are not always exact repeats. Equal values may be shown once.

For assay [1], the system named is RTV-K103N/I135T/V245T. As to the kind of experiment: Phenotypic susceptibility assay, RTV-K103N/I135T/V245T. It counts as cell-based, HIV-1. The note with it: site-directed K103N + I135T + V245T. An excerpt:
(§1) The resistance test vectors containing a functional luciferase gene cassette were constructed and host cells were transfected with the resistance test vector DNA. The resistant test vectors contained patient-derived reverse transcriptase and protease sequences that were either susceptible or resistant to the antiretroviral agents, such as nucleoside reverse transcriptase inhibitors, (NRTIs) non-nucleoside reverse transcriptase inhibitors […] protease inhibitors. The resistance test vector viral particles produced by transfecting the resistance test vector DNA into host cells, either in the presence or absence of PRIs, were used to infect target host cells grown either in the absence of NRTIs or NNRTIs, or in the presence of increasing concentrations of the drug. The amount of luciferase activity produced in infected target host cells in the presence of varying concentrations of drug was compared to the amount of luciferase produced in infected target host cells in the absence of drug. “Drug resistance” was measured as the amount of drug required to inhibit by 50% the luciferase activity detected in the absence of drug (inhibitory concentration 50%, IC50). The IC50 values were determined by plotting percent drug inhibition vs. log10 drug concentration. Stimulation of viral replication was measured as the percent increase in luciferase activity detected when infection occurs in the presence of drug as compared to in the absence of drug.
(§2) Host cells were seeded in 10-cm-diameter dishes and were transfected several days after plating with resistance test vector plasmid DNA and the envelope expression vector. Transfections were performed using a calcium-phosphate precipitation procedure. The cell culture media containing the DNA precipitate was replaced with fresh medium, from one to 24 hours, after transfection. Cell culture media containing resistance test vector viral particles was harvested one to four days after transfection and was passed through a […] filter before being used to infect target host cells, or being stored at −80° C. HIV capsid protein (p24) levels in the harvested cell culture media were determined by an EIA method as described by the manufacturer (SAIC; Frederick, Md.). Before infection, target cells (293 and 293/T) were plated in cell culture media. Control infections were performed using cell culture media from mock transfections (no DNA) or transfections containing the resistance test vector plasmid DNA without the envelope expression plasmid. One to three or more days after infection, the media was removed and cell lysis buffer (Promega) was added to each well. Cell lysates were assayed for luciferase activity (FIG. 3). The inhibitory effect of the drug was determined using the following equation:
(§3) % luciferase inhibition=1−(RLUluc[drug]÷RLUluc)×100
(§4) where RLUluc [drug] is the Relative Light Unit of luciferase activity in infected cells in the presence of drug, and RLUluc is the Relative Light Unit of luciferase activity in infected cells in the absence of drug. IC50values were obtained from the sigmoidal curves that were generated from the data by plotting the percent inhibition of luciferase activity vs. the log10 drug concentration. The percent luciferase stimulation is the negative of the % inhibition calculated using the formula above.
A resistance test vector containing three mutations, K103N, I135T and V245T (RTV-K103N/I135T/V245T) was constructed and tested in the phenotypic assay described earlier. The results were compared to those determined using a genetically defined resistance test vector that was wild type at positions 103, 135 and 245. We determined the pattern of phenotypic susceptibility to the NNRTIs, delavirdine, nevirapine and efavirenz, in RTV-K103N.

Assay [2] has as its system RTV-309-3. As to the kind of experiment: Phenotypic susceptibility assay, RTV-309-3. It counts as cell-based, HIV. The note with it: single clone from the RTV-309 pool. An excerpt:
The resistance test vectors containing a functional luciferase gene cassette were constructed and host cells were transfected with the resistance test vector DNA. The resistant test vectors contained patient-derived reverse transcriptase and protease sequences that were either susceptible or resistant to the antiretroviral agents, such as nucleoside reverse transcriptase inhibitors, (NRTIs) non-nucleoside reverse transcriptase inhibitors […] protease inhibitors. The resistance test vector viral particles produced by transfecting the resistance test vector DNA into host cells, either in the presence or absence of PRIs, were used to infect target host cells grown either in the absence of NRTIs or NNRTIs, or in the presence of increasing concentrations of the drug. The amount of luciferase activity produced in infected target host cells in the presence of varying concentrations of drug was compared to the amount of luciferase produced in infected target host cells in the absence of drug. […] The IC50 values were determined by plotting percent drug inhibition vs. log10 drug concentration. Stimulation of viral replication was measured as the percent increase in luciferase activity detected when infection occurs in the presence of drug as compared to in the absence of drug.
Host cells were seeded in 10-cm-diameter dishes and were transfected several days after plating with resistance test vector plasmid DNA and the envelope expression vector. […] HIV capsid protein (p24) levels in the harvested cell culture media were determined by an EIA method as described by the manufacturer (SAIC; Frederick, Md.). […] The inhibitory effect of the drug was determined using the following equation: […]
where RLUluc [drug] is the Relative Light Unit of luciferase activity in infected cells in the presence of drug, and RLUluc is the Relative Light Unit of luciferase activity in infected cells in the absence of drug. […] The percent luciferase stimulation is the negative of the % inhibition calculated using the formula above. […]

Assay [3] concerns RTV-012123. Kind of assay: Phenotypic susceptibility assay, RTV-012123. It counts as cell-based, HIV. The note with it: patient 012123; for decrease in susceptibility: 245 with multiple other mutations.
From the text: as §1, §2, §3, §4
(§5) A resistance test vector was constructed as described in Example 1 from a virus sample obtained from patient 012123. The prior and current treatment regimens are unknown. Isolation of viral RNA and RT/PCR was used to generate a patient derived segment (PDS) that comprised viral sequences coding for all of PR and aa 1-313 of RT. The PDS were inserted into an indicator gene viral vector to generate a resistance test vector designated RTV-012123. RTV-012123 was then tested in a phenotypic assay to determine accurately and quantitatively the level of susceptibility to a panel of anti-retroviral drugs. […]

The test system of assay [4] is RTV-1033-3/227F. Kind of assay: Phenotypic susceptibility assay, RTV-1033-3/227F. It counts as cell-based, HIV. The note with it: RTV-1033-3 with F227L reverted.
From the text: as §1, §2, §3, §4
A resistance test vector containing all of the mutations present in RTV-1033-3 except for F227L (RTV-1033-3/227F) was constructed and tested using the phenotypic assay described earlier. The results were compared to those determined using the parent RTV-1033-3. We determined the pattern of phenotypic susceptibility to the NNRTIs, delavirdine, nevirapine and efavirenz, in the reverted vector, RTV-1033-3/227F.

The subject of assay [5] is K103N/M230L-RTV. Kind of assay: Phenotypic susceptibility assay, K103N/M230L-RTV. It counts as cell-based, HIV-1. The settings on record: site-directed K103N + M230L.
From the text: as §1, §2, §3, §4
The M230L mutation was tested alone and is described in Example 3 above. A resistance test vector containing the M230L mutation and the K103N mutation (K103N/M230L-RTV) was constructed and tested using the phenotypic assay described earlier, and the results were compared to those determined using a genetically defined resistance test vector that was wild type at positions 103 and 230. We determined the pattern of phenotypic susceptibility to the NNRTIs, delavirdine, nevirapine and efavirenz, in the K103N/M230L-RTV. […]

Assay [6] deals with RTV-014397. Kind of assay: Phenotypic susceptibility assay, RTV-014397. It counts as cell-based, HIV. The note with it: patient 014397; for decrease in susceptibility: 245 and 103.
From the text: as §1, §2, §3, §4
as §5, with “014397.” for “012123.”, “RTV-014397. RTV-014397” for “RTV-012123. RTV-012123”

Consider `CC(C)Nc1cccnc1N1CCN(C(=O)c2cc3cc(NS(C)(=O)=O)ccc3[nH]2)CC1` [delavirdine], for which the “drug-dependent stimulation of viral replication” value (shortened to “drug-dependent stimulation”) in assay [1] is listed as roughly 50%; in assay [3], roughly 80%; in assay [4], roughly 100%; in assay [5], roughly 100%; in assay [6], roughly 100%. The “reductions in susceptibility compared to wild type control RTV” value (from here on “reductions in susceptibility”) in assay [1] is listed as greater than 250 fold; in assay [4], 72 fold. Besides, in assay [2], the reduction in susceptibility entry is on record as “wild type pattern of susceptibility”. Besides, the decrease in susceptibility in assay [3] and in assay [6] was greater than 250 fold throughout. The “reduction in susceptibility compared to wild type control RTV” value in assay [5] is recorded as greater than 250 fold.
With `O=C1Nc2ccc(Cl)cc2[C@@](C#CC2CC2)(C(F)(F)F)O1` [efavirenz], the “drug-dependent stimulation” value in assay [1] was roughly 25%; in assay [3], roughly 70%; in assay [4], roughly 100%; in assay [5], roughly 40%; in assay [6] it was roughly 70%. Further, the figures for the “reductions in susceptibility” value in assay [1] and in assay [4] were 174 fold and 18 fold, respectively. In assay [2], the reduction in susceptibility result was “wild type pattern of susceptibility”. Also, the decrease in susceptibility in assay [3] and in assay [6] was greater than 450 fold each time. Also, the “reduction in susceptibility compared to wild type control RTV” value in assay [5] was greater than 470 fold.
As for `Cc1ccnc2c1NC(=O)c1cccnc1N2C1CC1` [nevirapine], the “drug-dependent stimulation” value in assay [1] is roughly 40%; in assay [3] it was roughly 20%; in assay [4] it was roughly 120%; in assay [5] it was roughly 70%; in assay [6] it was roughly 100%. The “reductions in susceptibility” value was 594 fold and 544 fold in assay [1]; greater than 600 fold in assay [4]. This compound also yielded a reduction in susceptibility in assay [2] of 3 fold. The decrease in susceptibility in assay [3] and in assay [6] was greater than 600 fold throughout. Also, the “reduction in susceptibility compared to wild type control RTV” value in assay [5] was greater than 600 fold.
